For this assay, the target named is JAK1 (Homo sapiens (Human), UniProt P23458). As to the kind of experiment: Analysis of JAK1 activity inhibition ability (ADP-Glo Kinase Assay). The class given is biochemical. Conditions: JAK1 enzyme, ADP-Glo luminescence, ATP 250 uM, IRS-itide substrate, 30° C. 40 minutes; read-out: IC50. Summed up: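 JAK1 enzyme, IRS-itide substrate (40 ng/mL) and 250 uM ATP, both as prepared in kinase buffer (Tris-HCl pH 7.5, MgCl2, BSA, DTT), reacted with compound 40 min at 30 °C. ADP formed was detected by ADP-Glo luminescence; IC50 is the concentration giving 50% inhibition versus control.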
JAK1, sequence (P23458 whole entry): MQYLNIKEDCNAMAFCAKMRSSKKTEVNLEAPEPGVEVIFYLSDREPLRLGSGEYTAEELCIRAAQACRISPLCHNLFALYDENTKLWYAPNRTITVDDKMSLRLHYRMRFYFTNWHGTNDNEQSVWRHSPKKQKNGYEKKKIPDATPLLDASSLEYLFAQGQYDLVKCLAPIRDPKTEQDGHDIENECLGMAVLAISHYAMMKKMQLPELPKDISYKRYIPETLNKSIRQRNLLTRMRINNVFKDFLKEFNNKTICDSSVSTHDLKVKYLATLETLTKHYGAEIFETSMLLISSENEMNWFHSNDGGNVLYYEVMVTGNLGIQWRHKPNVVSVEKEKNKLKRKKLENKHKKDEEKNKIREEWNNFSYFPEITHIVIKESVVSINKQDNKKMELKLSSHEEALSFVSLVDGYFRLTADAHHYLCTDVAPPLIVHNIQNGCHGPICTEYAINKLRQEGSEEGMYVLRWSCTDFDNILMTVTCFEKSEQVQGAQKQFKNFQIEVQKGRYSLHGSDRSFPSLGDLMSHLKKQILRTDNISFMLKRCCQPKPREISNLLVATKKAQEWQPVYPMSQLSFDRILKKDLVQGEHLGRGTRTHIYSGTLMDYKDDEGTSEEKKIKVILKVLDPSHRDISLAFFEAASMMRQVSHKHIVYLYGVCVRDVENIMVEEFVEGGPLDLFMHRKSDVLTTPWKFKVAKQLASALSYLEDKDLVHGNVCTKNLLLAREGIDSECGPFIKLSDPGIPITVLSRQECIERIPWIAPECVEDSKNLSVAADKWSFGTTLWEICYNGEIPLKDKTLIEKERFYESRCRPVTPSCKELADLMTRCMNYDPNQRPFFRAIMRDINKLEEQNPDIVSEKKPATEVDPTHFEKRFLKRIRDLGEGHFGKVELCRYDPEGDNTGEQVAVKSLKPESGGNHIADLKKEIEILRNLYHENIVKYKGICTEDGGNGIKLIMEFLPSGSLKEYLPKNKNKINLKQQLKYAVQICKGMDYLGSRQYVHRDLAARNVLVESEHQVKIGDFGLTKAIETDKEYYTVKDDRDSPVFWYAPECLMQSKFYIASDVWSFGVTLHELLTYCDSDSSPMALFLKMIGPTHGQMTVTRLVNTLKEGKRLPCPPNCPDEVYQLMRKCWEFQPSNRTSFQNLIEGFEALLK

Consider `N#CCC1(N2CC=C(c3cc(NC(=O)C4CC4)nc4[nH]ccc34)CC2)CN(S(=O)(=O)c2ccc(F)cc2)C1` [Example 623, N-(4-(1-(3-(cyanomethyl)-1-((4-fluorophenyl)sulfonyl)azetidin-3-yl)-1,2,3,6-tetrahydropyridin-4-yl)-1H-pyrrolo[2,3-b]pyridin-6-yl)cyclopropanecarboxamide], for which the IC50 lay in the range of 20 to 200 nM.
In the case of `N#CCC1(N2CC=C(c3cc(NC(=O)C4CC4)nc4[nH]ccc34)CC2)CN(C(=O)NCC(F)(F)F)C1` [Example 624, 3-(cyanomethyl)-3-(4-(6-(cyclopropanecarboxamido)-1H-pyrrolo[2,3-b]pyridin-4-yl)-3,6-dihydropyridin-1 (2H)-yl)-N-(2,2,2-trifluoroethyl)azetidine-1-carboxamide] it was 20 to 200 nM; in that of `N#CCC1(N2CC=C(c3cc(NC(=O)C4CC4)nc4[nH]ccc34)CC2)CN(C(=O)CC(F)(F)F)C1` [Example 625, N-(4-(1-(3-(cyanomethyl)-1-(3,3,3-trifluoropropanoyl)azetidin-3-yl)-1,2,3,6-tetrahydropyridin-4-yl)-1H-pyrrolo[2,3-b]pyridin-6-yl)cyclopropanecarboxamide], 20 to 200 nM; in that of `CCS(=O)(=O)N1CC(CC#N)(N2CC=C(c3cc(NC(=O)C4CC4)nc4[nH]ccc34)C(C)C2)C1` (centres unmarked) [Example 626, N-(4-(1-(3-(cyanomethyl)-1-(ethylsulfonyl)azetidin-3-yl)-3-methyl-1,2,3,6-tetrahydropyridin-4-yl)-1H-pyrrolo[2,3-b]pyridin-6-yl)cyclopropanecarboxamide], less than 20 nM.
In the case of `CCS(=O)(=O)N1CC(CC#N)(N2CC=C(c3cc(NC(=O)C4CC4)nc4[nH]ccc34)[C@H](C)C2)C1` [Example 627, (S)—N-(4-(1-(3-(cyanomethyl)-1-(ethylsulfonyl)azetidin-3-yl)-3-methyl-1,2,3,6-tetrahydropyridin-4-yl)-1H-pyrrolo[2,3-b]pyridin-6-yl)cyclopropanecarboxamide] it was less than 20 nM.
In the case of `C[C@@H]1CN(C2(CC#N)CN(S(=O)(=O)C(F)(F)F)C2)CC=C1c1cc(NC(=O)C2CC2)nc2[nH]ccc12` [Example 628, (S)—N-(4-(1-(3-(cyanomethyl)-1-((trifluoromethyl)sulfonyl)azetidin-3-yl)-3-methyl-1,2,3,6-tetrahydropyridin-4-yl)-1H-pyrrolo[2,3-b]pyridin-6-yl)cyclopropanecarboxamide] it was less than 20 nM; in that of `CCS(=O)(=O)Oc1ccc(-c2cc(NC(=O)C3CC3)nc3[nH]ccc23)cc1` [Example 629, 4-(6-(cyclopropanecarboxamido)-1H-pyrrolo[2,3-b]pyridin-4-yl)phenyl ethanesulfonate], 20 to 200 nM; in that of `O=C(Nc1cc(-c2ccc(OS(=O)(=O)c3ccc(F)cc3)cc2)c2cc[nH]c2n1)C1CC1` [Example 630, 4-(6-(cyclopropanecarboxamido)-1H-pyrrolo[2,3-b]pyridin-4-yl)phenyl 4-fluorobenzenesulfonate], more than 200 nM.
Turning to `CCCS(=O)(=O)Oc1ccc(-c2cc(NC(=O)C3CC3)nc3[nH]ccc23)cc1` [Example 631, 4-(6-(cyclopropanecarboxamido)-1H-pyrrolo[2,3-b]pyridin-4-yl)phenyl propane-1-sulfonate], the IC50 lay in the range of 20 to 200 nM.
To `CCCCS(=O)(=O)Oc1ccc(-c2cc(NC(=O)C3CC3)nc3[nH]ccc23)cc1` [Example 632, 4-(6-(cyclopropanecarboxamido)-1H-pyrrolo[2,3-b]pyridin-4-yl)phenyl butane-1-sulfonate] belongs 20 to 200 nM; to `CC(C)S(=O)(=O)Oc1ccc(-c2cc(NC(=O)C3CC3)nc3[nH]ccc23)cc1` [Example 633, 4-(6-(cyclopropanecarboxamido)-1H-pyrrolo[2,3-b]pyridin-4-yl)phenyl propane-2-sulfonate], 20 to 200 nM.
Regarding `O=C(Nc1cc(-c2ccc(OS(=O)(=O)C3CCCCC3)cc2)c2cc[nH]c2n1)C1CC1` [Example 634, 4-(6-(cyclopropanecarboxamido)-1H-pyrrolo[2,3-b]pyridin-4-yl)phenyl cyclohexanesulfonate], the IC50 was more than 200 nM.
Turning to `O=C(Nc1cc(-c2ccc(OS(=O)(=O)CCCF)cc2)c2cc[nH]c2n1)C1CC1` [Example 635, 4-(6-(cyclopropanecarboxamido)-1H-pyrrolo[2,3-b]pyridin-4-yl)phenyl 3-fluoropropane-1-sulfonate], the IC50 lay within 20 to 200 nM.
To `C=CCS(=O)(=O)Oc1ccc(-c2cc(NC(=O)C3CC3)nc3[nH]ccc23)cc1` [Example 636, 4-(6-(cyclopropanecarboxamido)-1H-pyrrolo[2,3-b]pyridin-4-yl)phenyl prop-2-ene-1-sulfonate] belongs less than 20 nM; to `O=C(Nc1cc(-c2ccc(OS(=O)(=O)CC3CCCCC3)cc2)c2cc[nH]c2n1)C1CC1` [Example 637, 4-(6-(cyclopropanecarboxamido)-1H-pyrrolo[2,3-b]pyridin-4-yl)phenyl cyclohexylmethanesulfonate], more than 200 nM.
As for `O=C(Nc1cc(-c2ccc(OS(=O)(=O)CC3CCOC3)cc2)c2cc[nH]c2n1)C1CC1` (centres unmarked) [Example 638, 4-(6-(cyclopropanecarboxamido)-1H-pyrrolo[2,3-b]pyridin-4-yl)phenyl (tetrahydrofuran-3-yl)methanesulfonate], the IC50 was in the range of 20 to 200 nM.
To `N#CCCCS(=O)(=O)Oc1ccc(-c2cc(NC(=O)C3CC3)nc3[nH]ccc23)cc1` [Example 639, 4-(6-(cyclopropanecarboxamido)-1H-pyrrolo[2,3-b]pyridin-4-yl)phenyl 3-cyanopropane-1-sulfonate] belongs 20 to 200 nM; to `N#CCCCn1ccc2c(-c3ccc(OS(=O)(=O)CCCC#N)cc3)cc(NC(=O)C3CC3)nc21` [Example 640, 4-(1-(3-cyanopropyl)-6-(cyclopropanecarboxamido)-1H-pyrrolo[2,3-b]pyridin-4-yl)phenyl 3-cyanopropane-1-sulfonate], more than 200 nM; to `O=C(Nc1cc(-c2ccc(OCc3ccc(F)cc3)cc2)c2cc[nH]c2n1)C1CC1` [Example 641, N-(4-(4-((4-fluorobenzyl)oxy)phenyl)-1H-pyrrolo[2,3-b]pyridin-6-yl)cyclopropanecarboxamide], more than 200 nM.
To `O=C(Nc1cc(-c2ccc(OCCN3CCOCC3)cc2)c2cc[nH]c2n1)C1CC1` [Example 642, N-(4-(4-(2-morpholinoethoxy)phenyl)-1H-pyrrolo[2,3-b]pyridin-6-yl)cyclopropanecarboxamide] belongs 20 to 200 nM.
As to `CCCCOc1ccc(-c2cc(NC(=O)C3CC3)nc3[nH]ccc23)cc1` [Example 643, N-(4-(4-butoxyphenyl)-1H-pyrrolo[2,3-b]pyridin-6-yl)cyclopropanecarboxamide], the IC50 is more than 200 nM.
In the case of `N#Cc1ccc(COc2ccc(-c3nc(NC(=O)C4CC4)nc4[nH]cnc34)cc2)cn1` [Example 644, N-(6-(4-((6-cyanopyridin-3-yl)methoxy)phenyl)-9H-purin-2-yl)cyclopropanecarboxamide] it was more than 200 nM; in that of `CCS(=O)(=O)NC1CCC(c2cc(NC(=O)C3CC3)nc3[nH]ccc23)CC1` (centres unmarked) [Example 645, N-(4-(4-(ethylsulfonamido)cyclohexyl)-1H-pyrrolo[2,3-b]pyridin-6-yl)cyclopropanecarboxamide], 20 to 200 nM; in that of `CCS(=O)(=O)N1C2CCC1CC(c1cc(NC(=O)C3CC3)nc3[nH]ccc13)C2` (centres unmarked) [Example 646, N-(4-(8-(ethylsulfonyl)-8-azabicyclo[3.2.1]octan-3-yl)-1H-pyrrolo[2,3-b]pyridin-6-yl)cyclopropanecarboxamide], more than 200 nM.
To `O=C(Nc1cc(C2CC3CCC(C2)N3S(=O)(=O)C2CC2)c2cc[nH]c2n1)C1CC1` (centres unmarked) [Example 647, N-(4-(8-(cyclopropylsulfonyl)-8-azabicyclo[3.2.1]octan-3-yl)-1H-pyrrolo[2,3-b]pyridin-6-yl)cyclopropanecarboxamide] belongs more than 200 nM; to `O=C(Nc1cc(C2CC3CCC(C2)N3S(=O)(=O)CCCF)c2cc[nH]c2n1)C1CC1` (centres unmarked) [Example 648, N-(4-(8-((3-fluoropropyl)sulfonyl)-8-azabicyclo[3.2.1]octan-3-yl)-1H-pyrrolo[2,3-b]pyridin-6-yl)cyclopropanecarboxamide], more than 200 nM.
To `O=C(Nc1cc(C2CC3CCC(C2)N3S(=O)(=O)c2ccc(F)c(F)c2)c2cc[nH]c2n1)C1CC1` (centres unmarked) [Example 649, N-(4-(8-((3,4-difluorophenyl)sulfonyl)-8-azabicyclo[3.2.1]octan-3-yl)-1H-pyrrolo[2,3-b]pyridin-6-yl)cyclopropanecarboxamide] belongs more than 200 nM; to `O=C(Nc1cc(C2CC3CCC(C2)N3C(=O)C2CC2)c2cc[nH]c2n1)C1CC1` (centres unmarked) [Example 650, N-(4-(8-(cyclopropanecarbonyl)-8-azabicyclo[3.2.1]octan-3-yl)-1H-pyrrolo[2,3-b]pyridin-6-yl)cyclopropanecarboxamide], more than 200 nM; to `CCCCC(=O)N1C2CCC1CC(c1cc(NC(=O)C3CC3)nc3[nH]ccc13)C2` (centres unmarked) [Example 651, N-(4-(8-pentanoyl-8-azabicyclo[3.2.1]octan-3-yl)-1H-pyrrolo[2,3-b]pyridin-6-yl)cyclopropanecarboxamide], more than 200 nM.
Regarding `N#CCC(=O)N1CCC(c2cc(NC(=O)C3CC3)nc3[nH]ccc23)CC1` [Example 652, N-(4-(1-(2-cyanoacetyl)piperidin-4-yl)-1H-pyrrolo[2,3-b]pyridin-6-yl)cyclopropanecarboxamide], the 50% inhibitory concentration (IC50) lay within 20 to 200 nM.
In the case of `CCCCNC(=O)N1CCC(c2cc(NC(=O)C3CC3)nc3[nH]ccc23)CC1` [Example 653, N-butyl-4-(6-(cyclopropanecarboxamido)-1H-pyrrolo[2,3-b]pyridin-4-yl)piperidine-1-carboxamide], the IC50 is more than 200 nM.
Regarding `O=C(Nc1cc(C2CCN(C(=O)NCC(F)(F)F)CC2)c2cc[nH]c2n1)C1CC1` [Example 654, 4-(6-(cyclopropanecarboxamido)-1H-pyrrolo[2,3-b]pyridin-4-yl)-N-(2,2,2-trifluoroethyl)piperidine-1-carboxamide], the IC50 was more than 200 nM.

Source of the values: US11524968B2, “Heterocyclic compound as a protein kinase inhibitor” (HK inno.N Corporation, priority 2017, dated 2022).
